Reference: patent US9216991B2 (Ares Trading S.A., priority 2012, dated 2015)
Counter-ions that a name gives are not always drawn.

Assays:
IRAK4 = target: T1, IRAK4 (Homo sapiens, UniProt Q9NWZ3); experiment: IRAK4 Enzymatic Assay; type: biochemical; conditions: His-TEV-IRAK4 20 ng/well, ATP 2 μM, STK1-biotin peptide 300 nM, 3 hours at 30° C., FlashPlate radioactivity
T1 construct: His (N); TEV cleavage site (N)
T1 sequence (Q9NWZ3 1-460): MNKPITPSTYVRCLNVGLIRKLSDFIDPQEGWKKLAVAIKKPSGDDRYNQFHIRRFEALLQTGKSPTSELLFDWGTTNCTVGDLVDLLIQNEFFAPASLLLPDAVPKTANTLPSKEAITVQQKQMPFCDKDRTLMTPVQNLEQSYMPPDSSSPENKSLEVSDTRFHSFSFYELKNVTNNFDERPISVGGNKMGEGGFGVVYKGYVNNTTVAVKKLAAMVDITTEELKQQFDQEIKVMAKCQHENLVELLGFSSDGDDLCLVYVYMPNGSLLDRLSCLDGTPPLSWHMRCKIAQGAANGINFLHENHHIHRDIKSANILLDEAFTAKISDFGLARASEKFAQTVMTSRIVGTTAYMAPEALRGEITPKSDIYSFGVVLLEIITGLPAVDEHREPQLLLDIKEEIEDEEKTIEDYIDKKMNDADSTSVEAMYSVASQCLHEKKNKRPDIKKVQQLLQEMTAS
Outline: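 Recombinant His-TEV-tagged IRAK4 (20 ng/well) phosphorylates biotinylated STK1 peptide (300 nM) with 2 μM ATP plus [^33P]ATP, 3 h at 30 °C in pH 7.0 HEPES buffer with MgCl2 and MnCl2; compounds tested 20 μM to 1 nM. Reaction stopped with EDTA; incorporated radioactivity counted on streptavidin FlashPlates.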

Row | Compound | IC50 (IRAK4) [nM] | melting point [°C]
1 | Cn1cc(-c2cccc(-c3ncc(-c4cnn(C5CCCC(S(C)(=N)=O)C5)c4)cn3)c2)cn1 (stereo not drawn) [Example 288, imino(methyl)(3-(4-(2-(3-(1-methyl-1H-pyrazol-4-yl)phenyl)pyrimidin-5-yl)-1H-pyrazol-1-yl)cyclohexyl)-λ6-sulfanone] | < 100 | 172 to 179.2
2 | Cn1cc(-c2cccc(-c3ncc(-c4cnn([C@H]5CC[C@@]6(CC5)CNC(=O)C6)c4)cn3)c2)cn1 [Example 286, trans-8-(4-{2-[3-(1-Methyl-1H-pyrazol-4-yl)-phenyl]-pyrimidin-5-yl}-pyrazol-1-yl)-2-aza-spiro[4.5]decan-3-one] | < 100 | 255 to 258.7
3 | Cn1cc(-c2cccc(-c3ncc(-c4cnn([C@@H]5CC[C@@]6(CO)COC[C@@]6(O)C5)c4)cn3)c2)cn1 (single isomer, unassigned) [Example 281] | 100 to 1000 | 191.4 to 199.7
4 | Cn1cc(-c2cccc(-c3ncc(-c4cnn([C@H]5CCCNC5)c4)cn3)c2)cn1 [Example 283, 2-[3-(1-Methyl-1H-pyrazol-4-yl)-phenyl]-5-((S)-1-piperidin-3-yl-1H-pyrazol-4-yl)-pyrimidine] | < 100 | 175.8 to 180.6
5 | Cn1cc(-c2cccc(-c3ncc(-c4cnn(CC(=O)N5CC(O)C5)c4)cn3)c2)cn1 [Example 73, 1-(3-Hydroxy-azetidin-1-yl)-2-(4-{2-[3-(1-methyl-1H-pyrazol-4-yl)-phenyl]-pyrimidin-5-yl}-pyrazol-1-yl)-ethanone] | 100 to 1000 | 177 to 181
6 | Cn1cc(-c2cccc(-c3ncc(-c4cnn(CC(=O)N5CCCC(O)C5)c4)cn3)c2)cn1 (stereo not drawn) [Example 52, 1-(3-Hydroxy-piperidin-1-I)-2-(4-{2-[3-(1-methyl-1H-pyrazol-4-yl)-phenyl]-pyrimidin-5-yl}-pyrazol-1-yl)-ethanone] | 100 to 1000 | 198 to 200
7 | Cn1cc(-c2cccc(-c3ncc(-c4cnn(CCO)c4)cn3)c2)cn1 [Example 23, 2-(4-{2-[3-(1-Methyl-1H-pyrazol-4-yl)-phenyl]-pyrimidin-5-yl}-pyrazol-1-yl)-ethanol] | 100 to 1000 | 234 to 236
8 | Cn1cc(-c2cccc(-c3ncc(-c4cnn([C@H]5CC[C@H](OCCO)CC5)c4)cn3)c2)cn1 [Example 277, Trans-2-[4-(-4-{2-[3-(1-Methyl-1H-pyrazol-4-yl)-phenyl]-pyrimidin-5-yl}-pyrazol-1-yl)-cyclohexyloxy]-ethanol] | < 100 | 218.7 to 223.3
9 | Cn1cc(-c2cccc(-c3ncc(-c4cnn(CC(=O)N5CCC(O)C5)c4)cn3)c2)cn1 (stereo not drawn) [Example 74, 1-(3-Hydroxy-pyrrolidin-1-yl)-2-(4-{2-[3-(1-methyl-1H-pyrazol-4-yl)-phenyl]-pyrimidin-5-yl}-pyrazol-1-yl)-ethanone] | 100 to 1000 | 237 to 238
10 | Cn1cc(-c2cccc(-c3ncc(-c4cnn(C5CCS(=O)(=O)C5)c4)cn3)c2)cn1 (stereo not drawn) [Example 219, 5-[1-(1,1-Dioxo-tetrahydro-1lambda6-thiophen-3-yl)-1H-pyrazol-4-yl]-2-[3-(1-methyl-1H-pyrazol-4-yl)-phenyl]-pyrimidine] | 100 to 1000 | 247 to 250
11 | Cn1cc(-c2cccc(-c3ncc(-c4cnn([C@H]5CC[C@]6(CO)COC[C@]6(O)C5)c4)cn3)c2)cn1 (single isomer, unassigned) [Example 280] | < 100 | 190.1 to 201.7
12 | Cn1cc(-c2cnc(-c3cccc(-c4cnn(C)c4)c3)nc2)cn1 [Example 32, 5-(1-Methyl-1H-pyrazol-4-yl)-2-[3-(1-methyl-1H-pyrazol-4-yl)-phenyl]-pyrimidine] | 100 to 1000 | 199 to 200
13 | CN1CC2CC1CN2C(=O)[C@H]1CC[C@H](n2cc(-c3cnc(-c4cccc(-c5cnn(C)c5)c4)nc3)cn2)CC1 (stereo partly drawn) (as salt: hydrobromid) [Example 278, (5-Methyl-2,5-diaza-bicyclo[2.2.1]hept-2-yl)-trans-[4-(-4-{2-[3-(1-methyl-1H-pyrazol-4-yl)-phenyl]-pyrimidin-5-yl}-pyrazol-1-yl)-cyclohexyl]-methanone hydrobromide] |  | 50.3 to 55
14 | Cn1cc(-c2cccc(-c3ncc(-c4cnn([C@H]5CC[C@]6(CC5)CNC(=O)C6)c4)cn3)c2)cn1 [Example 287, cis-8-(4-(2-(3-(1-methyl-1H-pyrazol-4-yl)phenyl)pyrimidin-5-yl)-1H-pyrazol-1-yl)-2-azaspiro[4.5]decan-3-one] | < 100 | 262 to 265.8
15 | Cn1cc(-c2cccc(-c3ncc(-c4cnn([C@@H]5CCC[C@@H](O)C5)c4)cn3)c2)cn1 (relative stereo) [Example 290, Trans-3-(4-{2-[3-(1-Methyl-1H-pyrazol-4-yl)-phenyl]-pyrimidin-5-yl}-pyrazol-1-yl)-cyclohexanol] | 100 to 1000 | 207.5 to 212
16 | COCC1CCCN(C(=O)Cn2cc(-c3cnc(-c4cccc(-c5cnn(C)c5)c4)nc3)cn2)C1 (stereo not drawn) [Example 88, 1-(3-Methoxymethyl-piperidin-1-yl)-2-(4-{2-[3-(1-methyl-1H-pyrazol-4-yl)-phenyl]-pyrimidin-5-yl}-pyrazol-1-yl)-ethanone] | 100 to 1000 | 
